Measured values published in article PMC5766608, “Target engagement imaging of PARP inhibitors in small-cell lung cancer” (Nature Communications, 2018).
Like-named read-outs stand apart in the source and are kept apart here.

Assays:
PARP2 = target: T1, PARP2 (Homo sapiens, UniProt Q9UGN5); assay: PARP2 IC50 assay (BPS Bioscience, Strep-HRP, histone substrate); assay type: biochemical; conditions: footnote a: see Supplementary Fig. 2
T1 construct: purchased BPS Bioscience, San Diego, CA
Protocol: Assays were performed by BPS Bioscience, San Diego, CA. […] Data was reported by BPS a`s % enzyme activity curve from 0.03 nM or 0.1 nM to 1000 nM.

PARP = conditions: cited from earlier work
PARP1/2 [1] = assay: Blocking of PARPi-FL uptake by PARP inhibitors (confocal microscopy, flow cytometry); assay type: cell-based, human; conditions: JHU-LX22 cells
Protocol: (§1) Cells were then treated with fluorescent imaging agent PARPi-FL and either imaged via confocal microscopy or measured via flow cytometry. […] Then, cells were trypsinized, subjected to flow cytometry and analyzed for the relative PARPi-FL fluorescence signal. […] Error bars represent the SD of three independent experiments with three parallels each
We conducted confocal laser scanning microscopy to visualize the extent of intracellular blocking of PARPi-FL uptake by different PARPi. […] PARPi-FL was removed and cells were washed in fresh medium for 10 min. Next, cells were treated with 4% Paraformaldehyde (PFA) for 8 min on ice to ensure fixation. […] PARPi-FL intensity was determined by measuring the PARPi-FL fluorescence intensity in all nuclei, which were thresholded using Hoechst staining.
(§2) After the respective treatment/staining, which is described below for the different experiments, cells were washed in PBS, trypsinized, washed with flow buffer (1% BSA (w/v) in PBS), transferred to 5 mL flow cytometry tubes through the 40 µm cell strainer cap and left on ice until measurement in the flow cytometer (Fortessa II). Raw data were processed in FlowJo software in order to calculate PARPi-FL uptake per cell. Dead cells were excluded by eliminating DAPI positive cells from the analysis (Supplementary Fig. 8). Cell clumps and debris were eliminated using the corresponding gates (forward and side scatter) for the unstained cell population. PARPi-FL fluorescence was imaged in the FITC channel against side scatter (area).
Controls (cells incubated with medium instead of a PARP inhibitor) served as reference value and their PARPi-FL signal was defined as 100%.
To quantify the extent of blocking of PARPi-FL uptake by different PARPi, we quantified the intracellular PARPi-FL uptake in JHU-LX22 cells after incubation with PARP inhibitors.

PARP1/2 [2] = conditions: olaparib 50 mg/kg; for Initial blocking (t = 1 h): talazoparib 0.3 mg/kg i.v., 60 min between drug and tracer
Protocol: All PET/CT images (n = 90) were acquired on an Inveon PET/CT (Siemens) and reconstructed scans were analyzed using the Inveon Research Workplace Software (Siemens). To acquire PET/CT images, animals were anesthetized with 2% isoflurane and positioned on the scanner bed. […] PET data were collected for 5–10 min, followed by CT.
Activity concentration was quantified by averaging the mean values taken from VOIs drawn over the entire tumor as it appeared in the CT and portrayed as a mean %ID/g ± SD.

PARP1/2 [3] = conditions: for Blocking of [18F]PARPi tumor uptake (target engagement): 30 min before tracer, PET 2 h later
Source text: Fig. 7 Variable dose blocking.
The control group received no therapeutic inhibitor.

PARP1/2 [4] = assay: Ex vivo autoradiography of target engagement; conditions: olaparib 50 mg/kg, talazoparib 0.3 mg/kg, 30 min prior to tracer; tumor collected 2 h post tracer
Source text: Sections from 3 different tumor areas from each tumor (n = 3/group) were exposed to an autoradiography plate overnight and read the next day. ImageJ was used to quantify the signal intensity of each tissue. Adjacent sections were used for PARP1 IHC and H&E staining to confirm tissue identity and PARP1 expression.

PARP1/2 [5] = assay: In vitro binding kinetics by recovery of PARPi-FL binding (flow cytometry); assay type: cell-based, human; conditions: JHU-LX22 cells, 0.2 µM inhibitor 25 min, washed, 0-48 h post-incubation, two phase decay fit
Protocol: as §1, §2
We furthermore determined the duration of PARPi binding to their target site. […] Then, cells were subjected to flow cytometry as described above. […] We determined the duration of binding of the PARPi indirectly by calculating the recovery of PARP-FL binding with increasing times between PARPi and PARPi-FL treatment. Decay curves were calculated with Prism using two phase decay least squares regression.

T1 sequence (Q9UGN5 whole entry): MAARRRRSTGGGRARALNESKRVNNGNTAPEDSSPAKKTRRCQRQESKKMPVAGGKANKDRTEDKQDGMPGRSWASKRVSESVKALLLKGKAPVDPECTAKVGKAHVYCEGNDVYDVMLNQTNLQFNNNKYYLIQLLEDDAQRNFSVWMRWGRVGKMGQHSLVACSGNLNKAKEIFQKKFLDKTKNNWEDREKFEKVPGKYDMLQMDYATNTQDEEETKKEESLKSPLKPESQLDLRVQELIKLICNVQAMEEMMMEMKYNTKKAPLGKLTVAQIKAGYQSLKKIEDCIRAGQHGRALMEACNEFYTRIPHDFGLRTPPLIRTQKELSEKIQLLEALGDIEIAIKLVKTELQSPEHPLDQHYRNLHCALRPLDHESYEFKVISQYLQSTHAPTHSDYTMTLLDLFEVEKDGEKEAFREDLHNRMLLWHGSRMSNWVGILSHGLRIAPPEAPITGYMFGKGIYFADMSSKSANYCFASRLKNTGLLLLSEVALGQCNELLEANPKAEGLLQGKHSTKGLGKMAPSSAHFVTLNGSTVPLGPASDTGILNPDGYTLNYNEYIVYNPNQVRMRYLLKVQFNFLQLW

Row | IC50 (PARP2) | SMILES | PARP trapping, in words (PARP) | Blocking of PARPi-FL uptake / target engagement, in words (PARP1/2 [1]; pretreatment with inhibitor, then PARPi-FL) | Initial blocking (t = 1 h) (PARP1/2 [2]) | Initial blocking (t = 1 h) (PARP1/2 [2]; listed as talazoparib) | AUC (PARP1/2 [2]; target engagement over 48 h, single dose, talazoparib 0.3 mg/kg) | t1/2 (weighted) (PARP1/2 [2]; two phase decay fit of target engagement, talazoparib 0.3 mg/kg) | Blocking of [18F]PARPi tumor uptake (target engagement) (PARP1/2 [3]; 0.3 mg/kg i.v.) | Blocking of [18F]PARPi tumor uptake (target engagement) (PARP1/2 [3]; 0.9 mg/kg i.v.) | Blocking of [18F]PARPi tumor uptake (target engagement) (PARP1/2 [3]; 5 mg/kg i.v.) | Blocking of [18F]PARPi tumor uptake (target engagement) (PARP1/2 [3]; 15 mg/kg i.v.) | 50% blocking dose (PARP1/2 [3]; single-phase decay curve fit, JHU-LX48 PDX tumor) | [18F]PARPi tumor uptake blocked (autoradiography) (PARP1/2 [4]) | Retention on PARP1/2 binding sites, in words (PARP1/2 [5]) | Blocking of PARPi-FL uptake (PARP1/2 [1]; pretreatment with PARP inhibitor 25 min, then PARPi-FL 15 min)
1 | 310 pM | CC1=CC(C)=[N+]2C1=Cc1ccc(CCC(=O)N3CCN(C(=O)c4cc(Cc5n[nH]c(=O)c6ccccc56)ccc4F)CC3)n1[B-]2(F)F [PARPi-FL] |  |  |  |  |  |  |  |  |  |  |  |  |  | 
2 |  | Cn1ncnc1[C@H]1c2n[nH]c(=O)c3cc(F)cc(c23)N[C@@H]1c1ccc(F)cc1 [Talazoparib, (8S,9R)-5-Fluoro-8-(4-fluorophenyl)-9-(1-methyl-1H-1,2,4-triazol-5-yl)-2,7,8,9-tetrahydro-3H-pyrido[4,3,2-de]phthalazin-3-one] | most effective PARP trapping agent | most complete target engagement | 56% | 56% | 1021 %h | 9.8 h | 50% | 64% | 89% | 84% | 0.36 mg/kg | 45% | longest retention | 
3 |  | O=C(c1ccc(F)cc1)N1CCN(C(=O)c2cc(Cc3n[nH]c(=O)c4ccccc34)ccc2F)CC1 [^19F-PARPi] |  |  |  |  |  |  |  |  |  |  |  |  | longest retention | more than 50%
